Data set [1] is described as follows: Fluorescence spectra at a final concentration of 30 μM (Example 2). The data set is classed as physicochemical. The note with it: excited at 330 nm; for Fluorescence Intensity (MeOH) / λmax (MeOH)/nm: methanol, 30 μM; for Fluorescence Intensity (PB) / λmax (PB)/nm: phosphate buffer pH 7.4, 30 μM. On the procedure:
(§1) The fluorescence quantum yield of each CTMD analog synthesized was determined by the following procedure. The fluorescence spectrum was measured at 25° C. using a spectrofluorometer FP-6500 of JASCO (JASCO Corp., Tokyo). Specifically, the CTMD analog was dissolved in methanol (MeOH) or in 67 mM phosphate buffer (PB) (pH 7.4) at a final concentration of 750 nM using a quartz cell (light path length of 10 mm). Measurement was performed 3 times at the excited wavelength of 330 nm, emission/excitation band width of 3 nm, response of 0.5 second and scanning rate of 100 nm/min. The average was taken as the fluorescence spectrum of the compound. The fluorescence quantum yield was determined after the spectrum was corrected.
(§2) The fluorescence quantum yield determined in EXAMPLE 1 was estimated by measuring the fluorescence spectra when the final concentration of coelenteramide analogs was 750 nM. When the final concentration was 750 nM as in EXAMPLE 1, any fluorescence spectrum was not detected for c-14, c-31 and c-36 both in methanol and in a phosphate buffer, and not detected for c-25 in a phosphate buffer, in coelenteramide analogs of the present invention (n.d.: not detected). With respect to c-14, c-31, c-25 and c-36 that no fluorescence spectrum was detected, fluorescence spectra were measured under the same conditions as in EXAMPLE 1 except that the final concentration of these coelenteramide analogs was 30 μM. In a similar method, the fluorescence spectrum for C-4 was also measured at a final concentration of 30 μM. The fluorescence spectrum also for […] was measured in 50 mM Tris-HCl (pH 7.6) containing 10 mM CaCl2 under the same conditions as in EXAMPLE 1 except that the final concentration was 18 μM.

Data set [2] can be described thus: Fluorescence spectrum and fluorescence quantum yield of CTMD analogs at 750 nM (Example 1). The data set is classed as physicochemical. The note with it: for fluorescence spectrum detected / λmax (MeOH)/nm / Fluorescence quantum yield (MeOH): 750 nM; for fluorescence properties compared with known CTMD (c-4) or h-CTMD (c-13): from TABLE 1; for Fluorescence quantum yield (PB) / λmax (PB)/nm: 67 mM phosphate buffer pH 7.4, 750 nM; for Fluorescence quantum yield (PB) / λmax (PB)/nm / λmax (MeOH)/nm / Fluorescence quantum yield (MeOH): 25° C., excited at 330 nm; for Fluorescence quantum yield (PB) / Fluorescence quantum yield (MeOH): relative to quinine sulfate 0.55; for λmax (PB)/nm / λmax (MeOH)/nm: fluorescence emission; for λmax (MeOH)/nm / Fluorescence quantum yield (MeOH): methanol. The protocol:
as §1
Quinine sulfate was used as a standard for determining the fluorescence quantum yield. After quinine sulfate (Wako Pure Chemical Industries) was dissolved in 0.1N sulfuric acid aqueous solution, measurement was performed at the excitation light of 366 nm under the conditions for fluorescence measurements described above. The relative fluorescence quantum yield (fluorescence intensity) of the compound was calculated relative to the quantum yield of quinine sulfate as being 0.55.

Data set [3] in a line: Fluorescence spectrum in 50 mM Tris-HCl (pH 7.6) containing 10 mM CaCl2 at 18 μM. The data set is classed as physicochemical. To be noted: 10 mM CaCl2, 18 μM. On the procedure:
as §2
The fluorescence spectrum of c-38 was measured at 25° C. using a JASCO spectrofluorometer FP-6500 (JASCO Corp., Tokyo). Specifically, c-38 was dissolved in 50 mM Tris-HCl (pH 7.6) containing 10 mM CaCl2 at a final concentration of 18 μM using a quartz cell (light path length of 10 mm). […] The average was taken as the fluorescence spectrum.

For data set [4] the following is noted: 0.1N H2SO4, ex. 366 nm; value taken as reference; cited from earlier work.
Where [5] appears, read: both in methanol and in a phosphate buffer.

Regarding `Oc1ccc(-c2cnc(NC(=S)Cc3ccccc3)c(Cc3ccccc3)n2)cc1` [c-14, 3-Benzyl-5-(4-hydroxyphenyl)-2-(phenylthioacetylamino)pyrazine], the melting point was in the range of 195 to 198 °C. Further, in data set [1], the “Fluorescence Intensity (MeOH)” value came to 6.5, the “λmax (MeOH)/nm” value turned out to be 428.0 nm, the “Fluorescence Intensity (PB)” value came out at 1.4 and the “λmax (PB)/nm” value turned out to be 435.5 nm. Moreover, the fluorescence spectrum detected result in data set [2] (setting [5]) is “not detected”. Further, the “fluorescence properties compared with known CTMD (c-4) or h-CTMD (c-13)” value in data set [2] is “different fluorescence properties”.
For the molecule `O=C(Cc1ccc(O)cc1)Nc1ncc(-c2ccc(O)cc2)nc1Cc1ccccc1` [c-4, 3-benzyl-5-(4-hydroxyphenyl)-2-[(4-hydroxyphenyl)acetylamino]pyrazine, reference compound], in data set [1], the “Fluorescence Intensity (MeOH)” value is listed as 80.0, the “λmax (MeOH)/nm” value turned out to be 428.0 nm, the “Fluorescence Intensity (PB)” value is recorded as 1.7 and the “λmax (PB)/nm” value turned out to be 444.5 nm. Moreover, in data set [2], the “Fluorescence quantum yield (PB)” value is 0.001, the “λmax (PB)/nm” value is given as 451 nm, the “λmax (MeOH)/nm” value amounted to 427.5 nm and the “Fluorescence quantum yield (MeOH)” value is recorded as 0.012.
Consider `CC(=O)Oc1ccc(-c2cnc(NC(=S)Cc3ccccc3)c(Cc3ccccc3)n2)cc1` [c-31, 5-(4-Acetoxyphenyl)-3-benzyl-2-(phenylthioacetylamino)pyrazine], for which the melting point is 143 to 145 °C. Besides, in data set [1], the “Fluorescence Intensity (MeOH)” value was determined as 5.2, the “λmax (MeOH)/nm” value stood at 422.0 nm, the “Fluorescence Intensity (PB)” value worked out at 1.7 and the “λmax (PB)/nm” value came to 413.5 nm. The fluorescence spectrum detected result in data set [2] (setting [5]) is on record as “not detected”. In data set [2], the “fluorescence properties compared with known CTMD (c-4) or h-CTMD (c-13)” value is “different fluorescence properties”.
`Oc1ccc(CC(=S)Nc2ncc(-c3ccc(O)cc3)nc2Cc2ccccc2)cc1` [c-45, 3-Benzyl-5-(4-hydroxyphenyl)-2-[(4-hydroxyphenyl)thioacetylamino]pyrazine] yielded a melting point of 101 to 103 °C. Also, the “fluorescence ability in an aqueous solution” value in data set [3] is given as “had the fluorescence ability”.
`O=S(=O)(Cc1ccc(O)cc1)Nc1ncc(-c2ccc(O)cc2)nc1Cc1ccccc1` [c-38, 3-Benzyl-2-(4-hydroxybenzyl)sulfonylamino-5-(4-hydroxyphenyl)pyrazine] had a melting point of 194.5 to 196.5 °C. For the same molecule, the fluorescence capacity entry in data set [3] (excited at 330 nm, FIG. 4) is “has the fluorescence capacity”.
With `CC(=O)Nc1ncc(-c2ccc(O)cc2)nc1Cc1ccccc1` [c-25, 2-Acetylamino-3-benzyl-5-(4-hydroxyphenyl)pyrazine], in data set [1], the “Fluorescence Intensity (PB)” value stood at 2.0 and the “λmax (PB)/nm” value came out at 446.0 nm. In data set [2] (in a phosphate buffer), the fluorescence spectrum detected result is listed as “not detected”. Further, in data set [2], the “λmax (PB)/nm” value turned out to be 446.5 nm, the “λmax (MeOH)/nm” value amounted to 425.5 nm and the “Fluorescence quantum yield (MeOH)” value came to 0.009.
With `C=C[C@H]1CN2CC[C@H]1C[C@H]2[C@H](O)c1ccnc2ccc(OC)cc12.C=C[C@H]1CN2CC[C@H]1C[C@H]2[C@H](O)c1ccnc2ccc(OC)cc12.O=S(=O)(O)O` [quinine, quinine sulfate, reference compound], in data set [2] (0.1N H2SO4, ex. 366 nm), the “λmax of the standard” value was 451 nm. The “Fluorescence quantum yield of the standard” value in data set [4] is reported as 0.55.
On to `O=[N+]([O-])c1ccc(S(=O)(=O)Nc2ncc(-c3ccc(O)cc3)nc2Cc2ccccc2)cc1` [c-36, 3-Benzyl-5-(4-hydroxyphenyl)-2-[(4-nitrophenyl)sulfonylamino]pyrazine], for which the melting point is 176 to 177.5 °C (dec.). In data set [1], the “Fluorescence Intensity (MeOH)” value stood at 3.6, the “λmax (MeOH)/nm” value was determined as 433.0 nm, the “Fluorescence Intensity (PB)” value amounted to 0.8 and the “λmax (PB)/nm” value is 433.5 nm. In addition, the fluorescence spectrum detected result in data set [2] (setting [5]) was “not detected”. The “fluorescence properties compared with known CTMD (c-4) or h-CTMD (c-13)” value in data set [2] is given as “different fluorescence properties”.
`COc1ccc(-c2cnc(NS(=O)(=O)Cc3ccccc3)c(Cc3ccccc3)n2)cc1` [c-18, 3-Benzyl-2-benzylsulfonylamino-5-(4-methoxyphenyl)pyrazine]: the melting point was 213 to 215 °C. In data set [2], the “Fluorescence quantum yield (PB)” value is recorded as 0.147, the “λmax (PB)/nm” value came to 429 nm, the “λmax (MeOH)/nm” value came to 416.5 nm and the “fluorescence properties compared with known CTMD (c-4) or h-CTMD (c-13)” value was “different fluorescence properties”. For the same molecule, in data set [2], the “Fluorescence quantum yield (MeOH)” value is listed as 0.293.

A word on the melting point: it is the temperature, or range, at which the solid turns liquid.

Source of the values: US8431525B2, “Coelenteramide analogs” (JNC Corporation, priority 2009, dated 2013).
